From ChEMBL document CHEMBL3351869, “Discovery of a new family of carbonic anhydrases in the malaria pathogen Plasmodium falciparum--the η-carbonic anhydrases” (Bioorg Med Chem Lett, 2014) come the findings set out here.

This assay concerns the target Carbonic anhydrase 1 (Homo sapiens, UniProt P00915).

Carbonic anhydrase 1, sequence (P00915 whole entry): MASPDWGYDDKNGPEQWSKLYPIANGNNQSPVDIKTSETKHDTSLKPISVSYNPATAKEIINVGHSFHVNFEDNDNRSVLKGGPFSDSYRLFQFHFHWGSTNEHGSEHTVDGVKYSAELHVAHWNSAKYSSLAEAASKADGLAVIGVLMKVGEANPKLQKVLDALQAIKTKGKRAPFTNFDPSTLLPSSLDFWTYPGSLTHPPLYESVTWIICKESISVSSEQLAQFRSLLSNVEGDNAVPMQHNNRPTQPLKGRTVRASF

The term Ki denotes a measure of affinity in units of concentration, obtained from inhibition or displacement. Low readings indicate tighter binding, high ones weaker binding. As to `O=[Se](=O)(O)O` [SODIUM SELENATE], the Ki amounted to 570 µM.
